Results published in patent US11518746B2, “Nitrogen ring linked deoxyuridine triphosphatase inhibitors” (CV6 Therapeutics (NI) Limited, priority 2016, dated 2022).

How the values were obtained:
[1] = molecular target: T1, Recombinant human deoxyuridine nucleotidohydrolase (dUTPase) (Homo sapiens, UniProt P33316); assay: dUTPase inhibition, fluorescence-based DNA polymerase assay; type: biochemical; settings: for % relative inhibition vs. positive control: mean over three concentrations, typically 100, 50 and 25 μmol/L, compared to in-run positive control
T1 construct: made in house
T1 sequence (P33316 1-164 isoform P33316-2): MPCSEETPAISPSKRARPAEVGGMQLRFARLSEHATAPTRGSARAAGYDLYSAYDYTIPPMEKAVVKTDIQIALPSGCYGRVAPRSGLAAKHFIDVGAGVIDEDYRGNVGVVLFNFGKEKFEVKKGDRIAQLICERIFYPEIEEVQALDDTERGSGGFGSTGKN
Source text: Recombinant human deoxyuridine nucleotidohydrolase (dUTPase) is expressed and purified as described in Ladner R D, Carr S A, Huddleston M J, McNulty D E, Caradonna S J. J Biol Chem. 1996 Mar. 29; 271(13):7752-7. All drugs stocks are aliquoted and diluted as appropriate prior to use. The oligonucleotide primer, templates and fluorophore- and quencher-labeled detection probes are synthesized by Integrated DNA Technologies (Coralville, Iowa), subjected to polyacrylamide gel electrophoresis purification and reconstituted in Omnipur sterile nuclease-free water (EMD Chemicals USA, Gibbstown N.J.) at a stock concentration of 100 μmol/L. The two non-emissive (dark) quenching molecules incorporated into the detection probes include the Iowa black fluorescein quencher (IBFQ; absorption max 531 nm) and ZEN (non-abbreviation; absorption max 532 nm). The fluorescent label utilized is 6-FAM (5′-carboxyfluorescein; excitation max.=494 nm, emission max.=520 nm). Probes are further diluted to a working stock of 10 μmol/L and aliquoted to avoid repeated freeze/thaw cycles. AmpliTaq Gold DNA Polymerase, GeneAmp 10×PCR Buffer 2, MgCl2 and MicroAmp Optical 96-well Reaction Plates are purchased from Applied Biosystems (Carlsbad, Calif.). dNTPs are purchased individually at stock concentrations of 100 mmol/L from New England Biolabs at HPLC-certified >99% purity (Ipswich, Mass.).
Reaction mixtures contained primer, probe and template at an equimolar final concentration of 0.4 μmol/L. Magnesium chloride (MgCl2) is included at a final concentration of 2 mmol/L. Non-limiting dNTPs are included in the reaction mix in excess at a final concentration of 100 μmol/L (dUTP/dTTP is excluded). AmpliTaq Gold DNA polymerase is added at 0.875 U/reaction, 2.5 μl of 10×PCR buffer 2 added and nuclease-free ddH2O added to a final reaction volume of 25 μl. […] Thermal profiling and fluorescence detection is performed using a customized thermal program on board a Roche Lightcycler LC480 Instrument II. […] Raw fluorescence spectra for 6-FAM is measured at specified time intervals to follow assay progression on board a Roche LightCycler 480 Software Version 1.5 and exported and analyzed in Microsoft Excel (Microsoft, Redmond Wash.) and Prism (GraphPad Software, La Jolla Calif.). Fluorescence values for blank reactions (limiting dNTP omitted) are subtracted to give normalized fluorescence units (NFU) to account for background fluorescence.
Test compounds are screened in a fluorescence-based assay. […] This displacement effectively disrupts the Förster resonance energy transfer (FRET) and the resulting fluorescence detected upon excitation is directly proportional to the amount of the dUTP available in the assay for incorporation. […]

[2] = test system: colorectal (HCT116), breast (MCF-7) and non-small cell lung (H1299, A549, H358 and H460) cell line models; assay: Colony forming assay; type: cell-based; settings: increasing concentrations of FUdR between 0.5 and 2.5 μmol/L
Experimental: Colony forming assay showing the ability of colon (SW620, HCT116), non-small cell lung (A549, H460, H1299 and H358) and breast (MCF7) cancer cells to survive and proliferate following transient 24 hour exposure to test compounds, FUdR and combinations are determined. Specifically, cells are seeded at densities between 50 and 100 cells/well in 24-well plates. Twenty-four hours later, cells are treated with increasing concentrations of a rtest compound, a fixed dose of FUdR and combinations of these. After 24 hours, drug is removed, cells are rinsed and allowed to outgrow for 10-14 days. At the conclusion of the outgrowth, cells are fixed in 60% ice cold methanol and stained with 0.1% crystal violet, scanned and counted. Data is presented as percentage of untreated controls (mean±SD). Fraction affected and combination indexes are calculated according to the method of Chou and Talalay where <1 is indicative of a synergistic drug interaction.
Colony forming assays are performed to evaluate the effectiveness of test compounds alone and in combination with the fluoropyrimidine thymidylate synthase (TS) inhibitor fluorodeoxyuridine (FUdR) at reducing cancer cell viability in colorectal (HCT116), breast (MCF-7) and non-small cell lung (H1299, A549, H358 and H460) cell line models. […]

[3] = test system: colorectal (HCT116 and SW620) cell line models; assay: MTS growth inhibition assay; type: cell-based; settings: increasing concentrations of 5-FU between 0 and 100 μmol/L
Experimental: The Cell Titer AQueous MTS assay (Promega) is carried out according to the manufacturers guidelines. […] The combination effect is determined by the combination index (CI) method utilizing Calcusyn software (Biosoft, Ferguson, Mo.). Fraction affected (FA) is calculated from the percent growth inhibition: FA=[…]. CI values <1, synergism; 1-1.2, additive and >1.2, antagonism.
Test compounds are evaluated for their antitumor activity in colorectal cancer cells using the MTS growth inhibition assay. HCT116 and SW620 cells are exposed to increasing concentrations of each agent for 72 hours and growth inhibition is directly compared to vehicle-treated controls. The NSCLC cell lines A549 and H1299 are exposed to increasing concentrations of each agent for 72 hours and growth inhibition is directly compared to vehicle-treated controls.
MTS growth inhibition assays are performed to evaluate the effectiveness of the test compounds alone and in combination with the fluoropyrimidine thymidylate synthase (TS) inhibitor 5-fluorouracil (5-FU) at inhibiting the growth of colorectal (HCT116 and SW620) cell line models. […] Simultaneous treatment with increasing concentrations of 5-FU and a test compound at fixed concentrations of 25 μmol/L is determined.

Row | % relative inhibition vs. positive control [1] | Structure (SMILES) | also measured
1 | 75% | O=C1CN(CCCC(=O)N2CCC[C@H]2C(O)(c2ccccc2)c2ccccc2)C(=O)N1 [Example 79, (5)-1-(4-(2-(hydroxydiphenylmethyl)pyrrolidin-1-yl)-4-oxobutyl)imidazolidine-2,4-dione] | IC50 [1]: 1000 nM
2 | – | O=c1[nH]c(=O)n([C@H]2C[C@H](O)[C@@H](CO)O2)cc1F [FUdR, fluorodeoxyuridine] | colonies formed [2]: dose-dependent decreases in colonies formed
3 | 13% | CC(c1ccc(F)c(OCC2CC2)c1)C1CCCN1S(=O)(=O)CCCNC1CCC(=O)NC1=O (stereo not drawn) [Example 82, 3-((3-((2-(1-(3-(cyclopropylmethoxy)-4-fluorophenyl)ethyl)pyrrolidin-1-yl)sulfonyl)propyl)amino)piperidine-2,6-dione] | –
4 | 22% | COc1ccc(NCCCS(=O)(=O)N2CCCC2C(C)c2ccc(F)c(OCC3CC3)c2)c(=O)[nH]1 (stereo not drawn) [Example 80, 3-((3-((2-(1-(3-(cyclopropylmethoxy)-4-fluorophenyl)ethyl)pyrrolidin-1-yl)sulfonyl)propyl)amino)-6-methoxypyridin-2(1H)-one] | –
5 | – | O=c1[nH]cc(F)c(=O)[nH]1 [Example 5-FU, 5-fluorouracil] | growth inhibition [3]: dose-dependent increases in growth inhibition
